The data set relates to tamarin without a prior history of GBV-B infection. The data set is described as follows: Intrahepatic inoculation of synthetic GBV-B RNA into a tamarin; serum GBV-B RNA by real-time quantitative RT-PCR (TaqMan). It is filed as in vivo, Saguinus oedipus. Particulars: about 60 μg RNA intrahepatic. An excerpt: Plasmid DNA containing the GBV-B cDNA was purified by isopycnic centrifugation on a CsCl gradient and isolated by ethanol precipitation. The plasmid DNA was linearized at the 3′ terminus of the cDNA insert by digestion with Xho I. Two μg of the linearized DNA was used as template in an in vitro transcription reaction using the Ambion T7 MEGAscript Kit according to the manufacturer's instructions. The integrity of the resultant synthetic RNA product was confirmed by nondenaturing agarose gel electrophoresis.
Approximately 60 μg of RNA transcribed from the GBV-B cDNA clone was diluted in phosphate buffered saline and injected under direct visualization at laparotomy into the liver of a healthy tamarin without a prior history of GBV-B infection (Saguinus oedipus). Serum samples were collected from the animal weekly beginning at 2 weeks post-inoculation and tested for the presence of GBV-B RNA by real-time quantitative RT-PCR (TaqMan® assay).

With “GBV-B cDNA clone: synthetic RNA transcribed from the full-length 9.4 kb GBV-B cDNA clone containing the novel 3′ terminal sequence”, the “GBV-B RNA in serum” value (week 2 postinoculation) is 8.3 × 10^3 Genome equivalents/ml, the “GBV-B RNA in serum” value (week 3 postinoculation) is given as 6.6 × 10^5 Genome equivalents/ml and the “GBV-B RNA in serum” value (week 4 postinoculation) is recorded as 4.6 × 10^8 Genome equivalents/ml.

The values above are taken from patent US7473772B2, “Chimeric GB virus B (GBV-B)” (The Board of Regents of The University of Texas System, priority 2003, dated 2009).
